Data reported in paper PMC12254266, “Multicolored sequential resonance energy transfer for detection of simultaneous ligand binding at G protein-coupled receptors” (Nature Communications, 2025).
Values joined by “and” are separate entries in the source; they are usually repeats but may differ in a detail not shown here. Equal entries are not always repeated.

Assays:
FFA1-Nluc [1] = target: T1, FFA1-Nluc (Homo sapiens, UniProt O14842); assay: DISCo-BRET (endpoint, spectra scan, kinetics) with TUG-2591 and TUG-2597 at C terminal Nluc tagged FFA1; assay type: binding; parameters: expressed in transfected cells; settings: for Specific BRET (540/450): Sup Fig 3Bii, TUG-2591 0 nM; for Kd: TUG-2597 after TUG-2591 pre-treatment
How it was run: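 Flp-In T-REx 293 cells expressing Nluc-tagged FFA1 were induced with 100 ng/mL doxycycline for 24 h, then given Nano-Glo (1:800 final). Endpoint and spectral reads were taken 5 min after ligand at 37 °C; kinetics were read at 25 °C with sequential ligand additions. BRET ratios were taken from Nluc, NBD and SulfoCy5 emissions.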

Aqueous solubility = assay type: physicochemical; settings: in words, relative to previous analogues
FFA1 = FFA1 (Homo sapiens, UniProt O14842); assay: Ca2+ mobilisation (Fura2) in Flp-In T-REx 293 cells expressing Nluc-FFA1, FFA1-Nluc or untagged FFA1; assay type: cell-based; parameters: expressed in transfected cells
How it was run: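 520 nm emission read at 340 and 380 nm excitation over 90 s spanning compound addition. Response taken as peak 340/380 ratio after subtracting pre-addition ratios.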

FFA1-Nluc [2] = target: T1, FFA1-Nluc; assay: NanoBRET binding (saturation, kinetics) at C terminal Nluc tagged FFA1; parameters: expressed in transfected cells
How it was run: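 Doxycycline-induced (100 ng/mL, 24 h) FFA1-Nluc Flp-In T-REx 293 cells in HBSS with NanoGlo substrate (1:800). Endpoint binding used 5 min with fluorescent ligand at 37 °C. Kinetics were read at 25 °C: association ~10 min, then dissociation with excess competitor for 30 min. The read-out was the acceptor/donor BRET ratio.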

[3] = TUG-2591 100 nM + TUG-2597 […], displacing ligand T360 10 μM
[4] = TUG-2597 […] after TUG-2591 pre-treatment (Sup. Fig. 10A)
[5] = based on the value calculated in Supplementary Table 4
[6] = tracers 1.0 μΜ / 3.16 μΜ, displacing ligand T360 (30 μM)

Chain of FFA1 (O14842 whole entry): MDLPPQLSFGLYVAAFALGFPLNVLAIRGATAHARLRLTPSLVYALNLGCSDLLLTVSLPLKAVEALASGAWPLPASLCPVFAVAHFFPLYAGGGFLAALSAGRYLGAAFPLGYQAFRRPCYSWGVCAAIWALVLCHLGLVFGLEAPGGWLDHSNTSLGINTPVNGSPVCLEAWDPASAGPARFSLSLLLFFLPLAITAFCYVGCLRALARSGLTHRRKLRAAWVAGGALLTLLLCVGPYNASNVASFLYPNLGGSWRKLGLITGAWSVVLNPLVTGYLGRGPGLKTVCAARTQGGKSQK
T1 sequence (O14842 whole entry): as above

kOff DISCo-BRET NBD/Nluc (FFA1-Nluc [1]; [3]): 0.004 s⁻¹
kOff DISCo-BRET SulfoCy5/NBD (FFA1-Nluc [1]; [3]): 0.0045 s⁻¹
kOff DISCo-BRET NBD/Nluc (FFA1-Nluc [1]; TUG-2591 100 nM + TUG-2597 […], displacing ligands TUG-905 and T360 10 μM each): 0.00367 s⁻¹
kOn DISCo-BRET NBD/Nluc (FFA1-Nluc [1]; [4]): 31666.67 M⁻¹ s⁻¹
kOn DISCo-BRET SulfoCy5/NBD (FFA1-Nluc [1]; [4]): 28333.33 M⁻¹ s⁻¹
Kd (FFA1-Nluc [1]; read-out: Kd DISCo-BRET NBD/Nluc (kinetic)): 130 nM
Kd (FFA1-Nluc [1]; read-out: Kd DISCo-BRET SulfoCy5/NBD (kinetic)): 140 nM
kOff DISCo-BRET NBD/Nluc (FFA1-Nluc [1]; [5]): 0.004 s⁻¹
kOff DISCo-BRET SulfoCy5/NBD (FFA1-Nluc [1]; [5]): 0.004 s⁻¹
off rate from DISCo-BRET binding studies (FFA1-Nluc [1]; range depending on which tracer concentration was used (author rebuttal)): 0.18-0.27
kOff DISCo-BRET NBD/Nluc (FFA1-Nluc [1]; [6]): 0.004 s⁻¹
kOff DISCo-BRET SulfoCy5/NBD (FFA1-Nluc [1]; [6]): 0.003 s⁻¹
kOff DISCo-BRET NBD/Nluc (FFA1-Nluc [1]; tracers 1.0 μΜ / 3.16 μΜ, displacing ligands TUG-905 and T360 (30 μM each)): 0.00667 s⁻¹
aqueous solubility (Aqueous solubility): improved aqueous solubility
pEC50 (FFA1; Ca2+ data, mean±SEM, NR = No response): 7.27±0.15
Ca2+ Response as a % of T360 Response (FFA1; FFA1-Nluc cells, log[ligand] -6.5, technical replicates): 93.856%
activity in Ca2+ assays (FFA1; in words): full agonist activity
EMax (FFA1; percentage of response to 10 μM T360, NR = No response): 101±4%
Kd (FFA1-Nluc [2]; FFA1-Nluc, 95% confidence interval in parentheses, read-out: Kd, saturation BRET binding): 380 nM
Specific BRET (540/450) Ratio (FFA1-Nluc [2]; FFA1-Nluc, [TUG-2597] 550 nM): 0.0328 and 0.0282
kOff Nano-BRET Allosterism, FFA1-Nluc (FFA1-Nluc [2]; TUG-2597 (1 μM) in the presence of TUG-905 (30μM), 95% CI in parentheses): 0.24 (0.23-0.25) min-1
kOff Nano-BRET Single Concentration (FFA1-Nluc [2]; [5]): 0.00633 s⁻¹
kOn Nano-BRET Single Concentration (FFA1-Nluc [2]; no pre-treatment, NBD/Nluc (Sup. Fig. 10A)): 23333.33 M⁻¹ s⁻¹
Kd (FFA1-Nluc [2]; no pre-treatment, read-out: Kd Nano-BRET Single Concentration (kinetic)): 270 nM
Compound: COc1ccc(C(=O)N(CC(C)(C)CNc2ccc([N+](=O)[O-])c3nonc23)c2cccc(C)n2)c(N2CCC(COc3cccc(C(CC(=O)O)C4CC4)c3)CC2)c1.O=C(O)C(F)(F)F (centres unmarked) [TUG-2597]
Specific BRET (540/450) (FFA1-Nluc [1]; TUG-2597 + TUG-905): 0.2651 and 0.2434 and 0.2485 and 0.2471 and 0.2191 and 0.2108
Specific BRET (540/450) (FFA1-Nluc [1]; TUG-2597 alone): 0.1932 and 0.1879 and 0.1690 and 0.1361 and 0.1137 and 0.1169
Ca2+ Response as a % of T360 Response (FFA1; FFA1-Nluc cells, log[ligand] -6, technical replicates): 99.449% and 102.959% and 94.044% and 86.097% and 89.862% and 94.557% and 93.903% and 112.372% and 96.085%
Ca2+ Response as a % of T360 Response (FFA1; Nluc-FFA1 cells, log[ligand] -6, technical replicates): 98.502% and 90.832% and 83.286% and 100.456% and 100.532% and 98.348% and 86.132% and 101.429% and 99.802%
Ca2+ Response as a % of T360 Response (FFA1; Nluc-FFA1 cells, log[ligand] -6.5, technical replicates): 75.000% and 74.673% and 79.991% and 79.440% and 88.972% and 77.424%
Ca2+ Response as a % of T360 Response (FFA1; log[Ligand] -5, single technical replicates): 94.1089% and 100.3658% and 94.0694% and 95.2773% and 93.4218% and 94.0281% and 113.6201% and 103.7535% and 91.4802%
Ca2+ Response as a % of T360 Response (FFA1; log[Ligand] -5.5, single technical replicates): 88.4228% and 88.1164% and 92.8756% and 94.9449% and 95.8176% and 102.8518% and 111.3779% and 100.7045% and 94.6978%
Ca2+ Response as a % of T360 Response (FFA1; log[Ligand] -6, single technical replicates): 102.9594% and 94.0443% and 86.0972% and 89.8623% and 94.5572% and 93.9027% and 112.3722% and 96.0847% and 99.4485%
Ca2+ Response as a % of T360 Response (FFA1; log[Ligand] -6.5, single technical replicates): 98.0209% and 82.7239% and 91.3275% and 93.3935% and 84.3453% and 87.8268% and 93.2804% and 88.9497% and 93.8558%
Ca2+ Response as a % of T360 Response (FFA1; log[Ligand] -7, single technical replicates): 78.0026% and 75.4199% and 62.2477% and 75.7232% and 79.9853% and 65.5987% and 54.9740% and 35.8972% and 43.3457%
Ca2+ Response as a % of T360 Response (FFA1; log[Ligand] -8, single technical replicates): 14.2762% and 15.7577% and 11.8329% and 8.5966% and 24.0260% and 6.3496% and -0.7745% and -0.6973% and 0.6419%
Ca2+ Response as a % of T360 Response (FFA1; log[Ligand] -9, single technical replicates): 2.8056% and 3.1175% and 1.8245% and 0.4833% and 3.2822% and 3.2529% and 0.4143% and 0.1324% and 3.0301%
Ca2+ Response as a % of T360 Response (FFA1; untagged FFA1 cells, log[ligand] -6, technical replicates): 93.834% and 82.677% and 85.015% and 110.264% and 98.194% and 98.400% and 82.235% and 72.424% and 63.906% and 83.124% and 92.268% and 73.931%
Specific BRET (FFA1-Nluc [2]; FFA1-Nluc (Fig 1E), percentage of the maximal signal, [TUG-2597] 550 nM): 49.872% and 58.619% and 50.406% and 58.181% and 46.189%
